Results taken from patent US20230109157A1, “TOPICALLY APPLICABLE PREPARATION COMPRISING PEPTIDES AS ALLERGEN PROTECTION FOR THE SKIN” (BEIERSDORF AG, priority 2020, published 2023).
Where no end group is shown, it is not given here.

Assays:
interleukin 6 (IL6) = test: Interleukin 6 in supernatants of Phenion FTS full skin models (Bio-Plex multiplex immunoassay); type: cell-based, Human; conditions: FIG. 4, left bar; peptide alone
Method: (§1) The investigations were carried out using Phenion FTS full skin models (Phenion, Henkel). These were maintained for 3 days at 37° C. and 7% CO2 in deep-well plates having a […] pore size in the cell culture inserts. The skin models were maintained in 1.5 ml of air-liquid interface medium without phenol red. The medium was changed daily. The test substances were dissolved in ethanol and incubated at room temperature for 24 h. After culturing for 24 h, 25 μl of the substance solution was dripped onto a sterile filter paper that had previously been laid on the skin model. The barrier peptide (0.5 mM AcRFAACAA) had previously been applied to the model as a solution in 100 mM phosphate buffer (pH 7.5). Alternatively, the barrier peptide was applied in a formulation having a content of 0.25% by weight.
(§2) After culturing for a further 24 h, the models were harvested and one half embedded in OCT mounting medium (VWR Q-Path Chemicals), the other half snap-frozen in liquid nitrogen. The supernatant of each model was collected and stored at −20° C.
The supernatants were then analyzed (FIGS. 2, 3 and 4).
The supernatants of the Phenion FTS models were analyzed using the Bio-Plex Pro Human Cytokine Screening Panel (Bio-Rad) according to the manufacturer's protocol. […] The cytokine concentrations are calculated on the basis of the standard curves from the Bioplex system. […]

Phenion skin models = test: H&E staining of cryosections of Phenion skin models; type: cell-based; conditions: FIG. 5B; 0.5 mM peptide (control)
Method: as §1, §2
In further investigations, frozen sections were thawed and incubated for 10 min in 3.7% paraformaldehyde at RT. After three PBS wash steps and one minute in distilled water, they are stained for 3 min in hematoxylin solution. […]

[1] = Direct peptide reactivity assay (DPRA) with urushiols, Ellman's reagent, 24 h; conditions: FIG. 9; urushiols C15:1, C15:2, C15:3 (structures I-V); 24 h reaction, n=3
Method: FIGS. 7A-E, 8, and 9 show investigations into the reactivity of peptides of the invention with allergens over time (x-axis) and after 24 h. The absorbance is plotted on the y-axis. The peptide-allergen reactions were realized according to a direct peptide reactivity assay. The test is referred to as the in-chemico method, that is to say no cells are used, but a chemical reaction is carried out.
The native, still-unbound peptide is detected by reaction with Ellman's reagent and corresponding absorbance measurement. The direct peptide reactivity assay (DPRA) is a chemical method for predicting epidermal protein binding. DPRA uses for example HPLC to measure the depletion of peptides in solution after exposure to test chemicals.
In the DPRA method, the absorbance at 415 nm is determined as the measured variable.
The allergen concentration is in the investigations carried out a standard 5 mM and thus 10 times the concentration of the peptide used (0.5 mM).
The reaction courses shown in FIGS. 8 and 9 were determined colorimetrically through the reaction of the peptide with Ellmann's reagent in a photometer. In this reaction, DTNB ((5,5′-dithiobis-2-nitrobenzoic acid, Ellmann's reagent) is cleaved and attached to the SH residue of the amino acid cysteine of the peptides of the invention (Ac-RFAACAA, RFAACAA). […]

Substance	interleukin 6 (IL6) concentration, peptide on its own (interleukin 6 (IL6))	skin model histology (H&E), peptide alone (Phenion skin models)	reactivity and thus protective activity against urushiols [1]
Ac-RFAACAA [Ac-RFAACAA, acetylarginine-phenylalanine-alanine-alanine-cysteine-alanine-alanine]	unchanged	unchanged	
RFAACAA [Arg Phe Ala Ala Cys Ala Ala]			very high reactivity
